The source made the active and inactive calls. No cut-off for these calls is given here.
Legend:
[1] = target: Sodium-dependent noradrenaline transporter (Homo sapiens) (UniProt P23975); assay: Inhibition of human recombinant NET at 10 uM by radioligand binding assay
[2] = species: Homo sapiens; assay: Inhibition of human recombinant sodium channel at 10 uM by radioligand binding assay
[3] = target: T1, Muscarinic acetylcholine receptor M1 (Homo sapiens) (UniProt P11229); assay: Inhibition of human recombinant M1 receptor at 10 uM by radioligand binding assay
T1 sequence (whole entry): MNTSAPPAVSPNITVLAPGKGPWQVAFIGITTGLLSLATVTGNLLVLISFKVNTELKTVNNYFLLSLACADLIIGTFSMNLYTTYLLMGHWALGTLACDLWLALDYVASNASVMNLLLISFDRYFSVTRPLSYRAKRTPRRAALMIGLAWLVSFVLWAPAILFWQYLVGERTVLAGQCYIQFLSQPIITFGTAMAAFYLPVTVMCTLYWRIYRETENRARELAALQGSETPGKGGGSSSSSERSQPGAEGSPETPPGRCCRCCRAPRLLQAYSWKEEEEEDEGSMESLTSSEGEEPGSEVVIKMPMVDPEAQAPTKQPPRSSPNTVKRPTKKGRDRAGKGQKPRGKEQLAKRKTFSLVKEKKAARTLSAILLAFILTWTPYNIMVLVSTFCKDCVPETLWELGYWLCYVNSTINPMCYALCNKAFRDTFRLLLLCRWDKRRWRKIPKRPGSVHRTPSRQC

[4] = target: Adrenergic receptor alpha-2 (Homo sapiens) (UniProt P08913+P18825+P18089); assay: Inhibition of human recombinant alpha2 receptor at 10 uM by radioligand binding assay
[5] = target: T2, Cholecystokinin receptor type A (Homo sapiens) (UniProt P32238); assay: Inhibition of human recombinant CCK1 receptor at 10 uM by radioligand binding assay
T2 sequence (whole entry): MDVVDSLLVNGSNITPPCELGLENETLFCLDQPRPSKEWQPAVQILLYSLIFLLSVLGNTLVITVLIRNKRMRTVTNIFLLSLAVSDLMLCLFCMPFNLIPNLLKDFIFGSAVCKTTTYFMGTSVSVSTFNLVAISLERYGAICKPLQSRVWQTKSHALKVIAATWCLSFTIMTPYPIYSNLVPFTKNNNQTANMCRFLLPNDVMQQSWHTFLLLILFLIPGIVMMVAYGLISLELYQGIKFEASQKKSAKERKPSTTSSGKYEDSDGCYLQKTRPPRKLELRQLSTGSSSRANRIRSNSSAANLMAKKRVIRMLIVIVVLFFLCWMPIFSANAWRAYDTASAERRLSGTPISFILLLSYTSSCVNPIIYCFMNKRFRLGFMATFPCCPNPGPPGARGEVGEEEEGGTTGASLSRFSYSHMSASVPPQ

[6] = species: Homo sapiens; assay: Inhibition of human recombinant GABA receptor at 10 uM by radioligand binding assay
[7] = target: T3, Type-1 angiotensin II receptor (Homo sapiens) (UniProt P30556); assay: Inhibition of human recombinant AT1 receptor at 10 uM by radioligand binding assay
T3 sequence (whole entry): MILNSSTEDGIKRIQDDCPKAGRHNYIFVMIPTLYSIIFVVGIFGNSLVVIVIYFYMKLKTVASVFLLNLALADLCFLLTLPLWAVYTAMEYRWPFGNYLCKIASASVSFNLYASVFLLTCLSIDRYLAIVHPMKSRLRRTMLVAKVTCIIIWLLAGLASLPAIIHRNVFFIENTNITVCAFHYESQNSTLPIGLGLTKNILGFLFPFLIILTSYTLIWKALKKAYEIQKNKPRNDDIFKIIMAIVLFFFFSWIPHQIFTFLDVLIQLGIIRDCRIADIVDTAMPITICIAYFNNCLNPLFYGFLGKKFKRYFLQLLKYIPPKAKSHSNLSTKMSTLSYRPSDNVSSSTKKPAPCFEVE

[8] = target: T4, Adenosine receptor A1 (Homo sapiens) (UniProt P30542); assay: Inhibition of human recombinant A1 receptor at 10 uM by radioligand binding assay
T4 sequence (whole entry): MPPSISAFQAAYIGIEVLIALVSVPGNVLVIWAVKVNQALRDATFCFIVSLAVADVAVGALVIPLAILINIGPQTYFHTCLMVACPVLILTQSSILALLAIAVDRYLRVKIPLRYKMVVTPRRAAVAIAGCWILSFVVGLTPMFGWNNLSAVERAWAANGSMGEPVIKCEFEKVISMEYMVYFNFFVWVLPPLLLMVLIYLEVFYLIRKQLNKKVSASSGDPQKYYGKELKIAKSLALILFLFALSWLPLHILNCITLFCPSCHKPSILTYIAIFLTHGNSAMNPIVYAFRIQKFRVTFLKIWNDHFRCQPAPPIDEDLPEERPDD

[9] = target: 5-hydroxytryptamine receptor 7 (Homo sapiens) (UniProt P34969); assay: Inhibition of human recombinant 5HT7 receptor at 10 uM by radioligand binding assay
[10] = target: T5, Neuromedin-K receptor (Homo sapiens) (UniProt P29371); assay: Inhibition of human recombinant NK3 receptor at 10 uM by radioligand binding assay
T5 sequence (whole entry): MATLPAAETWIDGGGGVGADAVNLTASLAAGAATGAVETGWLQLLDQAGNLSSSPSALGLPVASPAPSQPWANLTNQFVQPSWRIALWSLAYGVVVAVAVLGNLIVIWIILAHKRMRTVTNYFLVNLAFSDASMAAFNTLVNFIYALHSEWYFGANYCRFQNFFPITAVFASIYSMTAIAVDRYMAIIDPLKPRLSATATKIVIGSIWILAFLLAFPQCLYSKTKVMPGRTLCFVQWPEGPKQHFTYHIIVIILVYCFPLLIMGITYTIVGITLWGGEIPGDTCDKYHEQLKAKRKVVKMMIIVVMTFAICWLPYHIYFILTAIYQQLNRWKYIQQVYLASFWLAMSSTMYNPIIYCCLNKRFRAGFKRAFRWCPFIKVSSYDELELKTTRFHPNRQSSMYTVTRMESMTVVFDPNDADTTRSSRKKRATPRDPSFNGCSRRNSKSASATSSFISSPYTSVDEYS

[11] = species: Homo sapiens; assay: Inhibition of human recombinant chloride channel at 10 uM by radioligand binding assay
[12] = target: Kappa-type opioid receptor (Homo sapiens) (UniProt P41145); assay: Inhibition of human recombinant KOP receptor at 10 uM by radioligand binding assay
[13] = target: Mu-type opioid receptor (Homo sapiens) (UniProt P35372); assay: Inhibition of human recombinant MOP receptor at 10 uM by radioligand binding assay
[14] = test system: 5-hydroxytryptamine receptor 2A; assay: Inhibition of human recombinant 5HT2A receptor at 10 uM by radioligand binding assay
[15] = target: Beta-1 adrenergic receptor (Homo sapiens) (UniProt P08588); assay: Inhibition of human recombinant beta1 receptor at 10 uM by radioligand binding assay
[16] = target: Melatonin receptor type 1A (Homo sapiens) (UniProt P48039); assay: Inhibition of human recombinant MT1 receptor at 10 uM by radioligand binding assay
[17] = test system: Voltage-gated potassium channel; assay: Inhibition of human recombinant Kv channel at 10 uM by radioligand binding assay; assay type: protein assay

Mu-type opioid receptor (Homo sapiens), sequence (P35372 whole entry): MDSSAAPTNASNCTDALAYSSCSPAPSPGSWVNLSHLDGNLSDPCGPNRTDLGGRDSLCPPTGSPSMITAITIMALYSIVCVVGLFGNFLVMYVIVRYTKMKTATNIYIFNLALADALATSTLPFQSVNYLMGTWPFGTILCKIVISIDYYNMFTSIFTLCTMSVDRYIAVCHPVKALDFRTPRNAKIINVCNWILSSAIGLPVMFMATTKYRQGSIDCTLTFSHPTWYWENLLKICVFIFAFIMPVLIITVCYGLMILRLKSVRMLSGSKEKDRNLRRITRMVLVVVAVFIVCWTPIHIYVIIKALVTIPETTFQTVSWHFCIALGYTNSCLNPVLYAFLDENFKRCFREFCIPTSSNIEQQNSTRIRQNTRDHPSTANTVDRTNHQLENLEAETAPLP
5-hydroxytryptamine receptor 7 (Homo sapiens), sequence (P34969 whole entry): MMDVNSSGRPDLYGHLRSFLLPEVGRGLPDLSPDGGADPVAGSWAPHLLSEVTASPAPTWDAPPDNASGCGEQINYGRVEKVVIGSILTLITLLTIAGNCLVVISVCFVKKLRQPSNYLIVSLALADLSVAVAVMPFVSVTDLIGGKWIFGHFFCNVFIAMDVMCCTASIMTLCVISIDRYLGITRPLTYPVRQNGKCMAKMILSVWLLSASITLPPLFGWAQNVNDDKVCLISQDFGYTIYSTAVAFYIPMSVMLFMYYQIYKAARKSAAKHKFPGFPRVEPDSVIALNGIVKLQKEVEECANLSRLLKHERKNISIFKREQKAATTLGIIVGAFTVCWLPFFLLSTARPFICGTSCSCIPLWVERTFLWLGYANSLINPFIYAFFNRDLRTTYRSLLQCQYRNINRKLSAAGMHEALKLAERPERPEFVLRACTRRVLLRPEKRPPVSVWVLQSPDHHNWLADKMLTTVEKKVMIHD
Melatonin receptor type 1A (Homo sapiens), sequence (P48039 whole entry): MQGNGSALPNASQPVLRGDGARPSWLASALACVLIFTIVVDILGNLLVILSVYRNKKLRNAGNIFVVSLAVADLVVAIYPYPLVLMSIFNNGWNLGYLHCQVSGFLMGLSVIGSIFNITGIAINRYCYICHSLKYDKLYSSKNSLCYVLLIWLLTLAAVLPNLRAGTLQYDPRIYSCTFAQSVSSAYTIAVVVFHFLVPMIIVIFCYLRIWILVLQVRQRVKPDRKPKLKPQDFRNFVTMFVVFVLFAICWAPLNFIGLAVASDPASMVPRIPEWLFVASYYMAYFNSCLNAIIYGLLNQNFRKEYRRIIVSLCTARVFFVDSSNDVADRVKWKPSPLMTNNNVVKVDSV
Sodium-dependent noradrenaline transporter (Homo sapiens), sequence (P23975 whole entry): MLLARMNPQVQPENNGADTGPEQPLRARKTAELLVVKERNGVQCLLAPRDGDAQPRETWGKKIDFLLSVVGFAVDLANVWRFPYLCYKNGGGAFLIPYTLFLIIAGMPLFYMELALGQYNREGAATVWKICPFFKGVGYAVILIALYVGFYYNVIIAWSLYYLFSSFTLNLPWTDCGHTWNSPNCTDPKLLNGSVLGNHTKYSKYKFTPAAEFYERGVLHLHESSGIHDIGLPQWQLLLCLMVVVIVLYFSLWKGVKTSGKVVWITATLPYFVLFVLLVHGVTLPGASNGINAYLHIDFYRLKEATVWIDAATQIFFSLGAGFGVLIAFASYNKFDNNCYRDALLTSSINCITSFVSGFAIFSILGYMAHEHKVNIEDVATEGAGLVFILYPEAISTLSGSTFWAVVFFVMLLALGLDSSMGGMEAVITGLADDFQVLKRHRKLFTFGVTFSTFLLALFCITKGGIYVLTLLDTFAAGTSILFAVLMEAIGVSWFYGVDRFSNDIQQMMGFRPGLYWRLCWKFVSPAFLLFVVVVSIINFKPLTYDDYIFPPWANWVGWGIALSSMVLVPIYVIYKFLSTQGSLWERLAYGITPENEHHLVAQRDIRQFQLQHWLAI
Beta-1 adrenergic receptor (Homo sapiens), sequence (P08588 whole entry, looked up): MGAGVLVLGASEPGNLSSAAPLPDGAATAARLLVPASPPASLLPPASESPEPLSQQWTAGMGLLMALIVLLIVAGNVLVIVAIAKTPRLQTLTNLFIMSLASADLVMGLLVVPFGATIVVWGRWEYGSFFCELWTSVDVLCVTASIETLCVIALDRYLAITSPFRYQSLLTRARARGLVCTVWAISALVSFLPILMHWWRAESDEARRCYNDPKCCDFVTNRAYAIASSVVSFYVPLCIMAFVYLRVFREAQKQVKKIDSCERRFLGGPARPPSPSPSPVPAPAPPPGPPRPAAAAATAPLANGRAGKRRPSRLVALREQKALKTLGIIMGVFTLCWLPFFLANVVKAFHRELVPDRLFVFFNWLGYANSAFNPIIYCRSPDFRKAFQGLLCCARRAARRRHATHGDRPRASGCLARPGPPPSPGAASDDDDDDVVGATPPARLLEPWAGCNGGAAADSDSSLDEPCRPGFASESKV
Kappa-type opioid receptor (Homo sapiens), sequence (P41145 whole entry): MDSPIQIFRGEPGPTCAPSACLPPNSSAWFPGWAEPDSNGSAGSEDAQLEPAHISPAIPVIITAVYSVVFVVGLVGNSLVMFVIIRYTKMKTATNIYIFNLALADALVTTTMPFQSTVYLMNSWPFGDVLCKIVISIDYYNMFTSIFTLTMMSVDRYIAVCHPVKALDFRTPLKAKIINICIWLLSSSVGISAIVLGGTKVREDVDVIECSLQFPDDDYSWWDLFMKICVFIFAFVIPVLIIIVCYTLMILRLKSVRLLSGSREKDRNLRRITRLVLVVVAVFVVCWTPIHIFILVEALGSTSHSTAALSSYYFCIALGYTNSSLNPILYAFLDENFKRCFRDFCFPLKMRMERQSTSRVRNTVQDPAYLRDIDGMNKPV

| inhibition [1] | inhibition [2] | inhibition [3] | inhibition [4] | inhibition [5] | inhibition [6] | inhibition [7] | inhibition [8] | inhibition [9] | inhibition [10] | inhibition [11] | inhibition [12] | inhibition [13] | inhibition [14] | inhibition [15] | inhibition [16] | inhibition (INH) [17] | Compound |
| --- | --- | --- | --- | --- | --- | --- | --- | --- | --- | --- | --- | --- | --- | --- | --- | --- | --- |
| Active | Active | Active | Active | Active | Active | Active | Active | Active | Active | Active | Active | Active | Active | Active | Active | Active | COc1ccc(-c2ccn(-c3ccc(O)c([N+](=O)[O-])c3)c2-c2ccc(C(N)=O)cc2C)cc1 |
| inactive | inactive | inactive | inactive | inactive | inactive | inactive | inactive | inactive | inactive | inactive | inactive | inactive | – | inactive | inactive | Not Active | Cc1cc(C(N)=O)ccc1-n1c(CCC(=O)O)ccc1-c1ccc(-n2ccnc2)cc1 [N6022] |
| inactive | inactive | inactive | inactive | inactive | inactive | inactive | inactive | inactive | inactive | inactive | inactive | inactive | inactive | inactive | inactive | Not Active | Cc1cc(C(N)=O)ccc1-c1c(-c2ccc(-n3ccnc3)cc2)ccn1CCC(=O)O |
| Active | Active | Active | Active | Active | Active | Active | Active | Active | Active | Active | Active | Active | Active | Active | Active | Active | COc1ccc(-c2ccn(-c3ccc(C(=O)O)c(O)c3)c2-c2ccc(C(N)=O)cc2C)cc1 |
| inactive | inactive | inactive | inactive | inactive | inactive | inactive | inactive | inactive | inactive | inactive | inactive | inactive | inactive | inactive | inactive | Not Active | Cc1cc(C(N)=O)ccc1-c1c(CCC(=O)O)ccn1-c1ccc(-n2ccnc2)cc1 |
